Article PMC6801822, “The Bactericidal Activity of Temporin Analogues Against Methicillin Resistant Staphylococcus aureus” (International Journal of Molecular Sciences, 2019)
Converted amounts (≈) assume the structure as drawn. Non-standard residues stand in square brackets, D forms with d. Residues, ends and D or L forms follow the SMILES beside them. AEEA = NCCOCCOCC(=O)O

Key:
[1] = test system: MRSA clinical isolate 1694; conditions: MRSA clinical isolate 1694 (blood); broth microdilution, MHB, 24 h
Protocol: (§1) Antimicrobial activity of peptides was analyzed through determination of MIC parameter according to the standard microdilution technique performed on 96-well plates. Mueller-Hinton broth (MHB, Sigma Aldrich, St. Louis, MO, USA) was used as the working medium for all bacterial strains. Briefly, inoculum was prepared from freshly grown cultures of bacteria being at their exponential phase of growth. Each well of 96-well plates containing 100 µL of serially diluted peptides in PBS at desired concentration was inoculated with 100 µL of 10^5 CFU/mL of bacterial suspension. Then plates were incubated overnight 37 °C and absorbance was read at 600 nm after 24 h. Wells without peptide were treated as the positive control, while uninoculated MHB was defined as the negative control. All measurements were run in triplicates.

[2] = test system: MRSA clinical isolate 7569; conditions: MRSA clinical isolate 7569 (blood); broth microdilution, MHB, 24 h
Protocol: as §1

S. aureus Newman = conditions: S. aureus Newman; broth microdilution, MHB, 37 °C, 24 h, triplicates
Protocol: as §1

[3] = test system: S. aureus USA300 cytoplasmic membrane; test: Sytox green uptake (membrane permeabilization); assay type: cell-based, Staphylococcus aureus
Protocol: The USA300 strain was grown to mid-logarithmic phase at 37 °C, washed, and resuspended in 10 mM sodium phosphate buffer (pH 7.2) Bacterial cells were then incubated with 1 µM Sytox green for 15 min in the dark. After the addition of desired concentration of peptide conjugate (5–100 µg/mL), the time-dependent increases in fluorescence caused by the binding of the cationic dye to intracellular DNA were monitored (excitation at 485 nm and emission at 520 nm).

S. aureus USA300 = conditions: MRSA; equal to 40 μg/mL
Protocol: as §1

[4] = test system: intracellular S. aureus USA300 in HaCaT cells; test: Killing of intracellular S. aureus in keratinocytes, CFU count
Protocol: (A) USA300 survival within infected HaCaT cells. Keratinocytes were infected with USA300 (MOI 1:5, 1:25, 1:50, 1:100) for 2.5 h and treated with DAL-PEG-DK5 (50 μg/mL) for 3 h. Afterwards, keratinocytes were lysed and plated on agar plates for counting of bacteria. The number of viable bacterial cells is expressed as CFU/mL with respect to the number of intracellular bacteria in the corresponding control samples. The data shown is representative of two separate experiments performed in triplicate. Mean ± SD n = 2. * p < 0.01; ** p < 0.005; one-way ANOVA. (B) Keratinocytes were infected with USA300 (MOI 1:50) for 2.5 h and treated with DAL-PEG-DK5 (50 μg/mL) for indicated time points (1, 3, 6 h). Afterwards, keratinocytes were lysed and plated on agar plates for counting of bacteria. The number of viable bacterial cells is expressed as a CFU/mL with respect to the number of intracellular bacteria in the corresponding control samples. Mean ± SD n = 2. * p < 0.01; ** p < 0.005; **** p < 0.0001; one-way ANOVA. […] (C) Keratinocytes were infected with USA300 (MOI 1:50) for 2.5 h and treated with DAL-PEG-DK5 (50 μg/mL) for 1 h. Afterwards, keratinocytes were lysed and plated on agar plates for counting of bacteria. […] The number of viable bacterial cells is expressed as a % of control with respect to the number of intracellular bacteria/bacteria in suspension in the corresponding control samples. […]

[5] = test system: MRSA clinical isolate 3417; conditions: MRSA clinical isolate 3417 (blood); broth microdilution, MHB, 24 h
Protocol: as §1

For CC[C@H](C)[C@H](NC(=O)COCCOCCNC(=O)[C@H](CCCNC(=N)N)NC(=O)[C@H](CC(C)C)NC(=O)[C@H](Cc1ccccc1)NC(=O)CNC(=O)[C@@H](C)NC(=O)[C@@H](N)Cc1ccc(O)cc1)C(=O)N[C@@H](CCCCN)C(=O)N[C@@H](CCCCN)C(=O)N[C@H](C(=O)N[C@@H](CC(C)C)C(=O)N[C@@H](CO)C(=O)N[C@H](CCCCN)C(=O)N[C@H](C(=O)N[C@@H](CCCCN)C(=O)N[C@@H](CCCCN)C(=O)N[C@@H](CC(C)C)C(=O)N[C@@H](CC(C)C)C(N)=O)[C@@H](C)CC)[C@@H](C)CC [DAL-PEG-DK5] (H-Y[dA]GFLR[AEEA]IKKILS[dK]IKKLL-NH2; N-terminus assumed), the MIC [1] was 70 µg/mL (≈ 30.7 µM), the MIC [2] was 40 µg/mL (≈ 17.6 µM) and the MIC (S. aureus Newman) was 140 µg/mL (≈ 61.5 µM). The “permeabilization of the cell membrane” value ([3]; 5 min post-treatment, peptide 10 μg) was “marked permeabilization of the cell membrane”, the “concentration at which permeabilization of the bacterial membrane reached a plateau” value ([3]; USA300, 1 μM Sytox green, 10 mM sodium phosphate buffer pH 7.2, up to 60 min) was 25 µg/mL and the MIC (S. aureus USA300) was 17.56 µM (≈ 40 µg/mL). The “reduction of intracellular USA300 load” value ([4]; HaCaT infected 2.5 h at MOI 1:50 and 1:100, peptide 50 μg/mL, 3 h) was “more than 60%”, the “reduction of MRSA load in keratinocytes” value ([4]; HaCaT, USA300 MOI 1:50, peptide 50 μg/mL (1.25 × MIC), 1 h, n = 2) was 71.5% and the MIC [5] was 40 µg/mL (≈ 17.6 µM).
